Measurements as given in paper PMC12867150, “A fungi-derived cyclic peptide enhances Th9-mediated antitumor immunity by targeting ZAP70 and SREBP1” (The Journal of Clinical Investigation, 2025).
Several values for one entry are separate records, joined by “and”; a condition that tells them apart may be missing. Equal entries are not always repeated.

Legend:
Format in all cases: cell-based, mouse
[1] = test system: Treg cells; assay: Treg polarization, Foxp3 by flow cytometry (Figure 1I)
Description: (§1) Naive CD4^+ T cells were isolated from the spleens of C57BL/6J or CD45.1^+ OT-II mice using the MojoSort Mouse CD4 Naive T Cell Isolation Kit (BioLegend, catalog 480040), following the manufacturer’s protocol. Purified cells were cultured in RPMI-1640 medium supplemented with 10% FBS, 1% penicillin-streptomycin, and 0.1% β-mercaptoethanol (Gibco, catalog 21985023).
(§2) T cell polarization was initiated under plate-bound anti-CD3 (2 μg/mL, clone 17A2, BioXCell, catalog BE0002) and soluble anti-CD28 (1 μg/mL, clone 37.51, BioXCell, catalog BE0015-1) stimulation, with the addition of cytokines and neutralizing antibodies specific to each subset. For Th9 cells, these included IL-4 (10 ng/mL, Peprotech, catalog 400-04), TGF-β (1 ng/mL, EPOTO Biotech, catalog HF-2021), anti–IL-12 (5 μg/mL, clone C17.8, BioXCell, catalog BE0051), and anti–IFN-γ (10 μg/mL, clone XMG1.2, BioXCell, catalog BE0055); for Th1 cells, these included IL-12 (10 ng/mL, GenScript, catalog Z03211-50) and anti–IL-4 (5 μg/mL, clone 11B11, BioXCell, catalog BE0045); for Th2 cells, these included IL-4 (50 ng/mL), anti–IFN-γ (20 μg /mL), anti–IL-12 (5 μg/mL), Th17 cells: IL-6 (20 ng/mL, EPOTO Biotech, catalog MF-1006), TGF-β (1 ng/mL), IL-1β (10 ng/mL, Peprotech, catalog AF-211-11B), anti–IFN-γ (10 μg/mL), anti–IL-12 (5 μg/mL), and anti–IL-4 (5 μg/mL); and for Tregs, these included TGF-β (3 ng/mL). […]

[2] = test system: Th17 cells; assay: Th17 polarization, IL-17 by flow cytometry (Figure 1H)
Description: as §1, §2

[3] = test system: Th0 cells; assay: Th0 polarization, IFN-γ by flow cytometry (Figure 1E)
Description: as §1, §2

[4] = EpA 10 μM, individual replicates, n = 4

In the case of anteiso-C15 Leu7 surfactin [EpA], the “Foxp3 expression under Treg polarization” value [1, 4] is reported as 47.3 and 45.9 and 45.6 and 47.5, the “effect on Treg polarization” value ([1]; result in words) is reported as “did not affect” and the “IL-17 expression under Th17 polarization” value [2, 4] is reported as 31.3 and 30.4 and 30.7 and 33.1. For the same substance, the “effect on Th17 polarization” value ([2]; result in words) was “did not affect”, the “IFN-γ expression under Th0 polarization” value [3, 4] was 31 and 32.2 and 35 and 26.8 and the “effect on Th0 polarization” value ([3]; result in words) was “did not affect”.
